Read-outs that look alike come from different tables or passages of the source.
Experiments:
[1] = target: PD-1-Ig binding to PD-L1-TVMV-His (PD-L1-His) (Homo sapiens (Human), UniProt Q9NZQ7); assay: PD-1/PD-L1 Homogenous Time-Resolved Fluorescence (HTRF) binding assay; details: PD-1-Ig/PD-L1-His binding, read-out: HTRF IC50 (μM) or Range
Source text: The ability of the macrocyclic peptides of the present disclosure to bind to PD-L1 was investigated using a PD-1/PD-L1 Homogenous Time-Resolved Fluorescence (HTRF) binding assay.
Homogenous Time-Resolved Fluorescence (HTRF) Assays of Binding of Soluble PD-1 to Soluble PD-L1. Soluble PD-1 and soluble PD-L1 refers to proteins with carboxyl-end truncations that remove the transmembrane-spanning regions and are fused to heterologous sequences, specifically the Fc portion of the human immunoglobuling G sequence (Ig) or the hexahistidine epitope tag (His). All binding studies were performed in an HTRF assay buffer consisting of dPBS supplemented with 0.1% (w/v) bovine serum albumin and 0.05% (v/v) Tween-20. For the PD-1-Ig/PD-L1-His binding assay, inhibitors were pre-incubated with PD-L1-His (10 nM final) for 15m in 4 μl of assay buffer, followed by addition of PD-1-Ig (20 nM final) in 1 μl of assay buffer and further incubation for 15 m. PD-L1 fusion proteins from either human, cynomologous macaques, mouse, or other species were used. HTRF detection was achieved using europium crypate-labeled anti-Ig monoclonal antibody (1 nM final) and allophycocyanin (APC) labeled anti-His monoclonal antibody (20 nM final). Antibodies were diluted in HTRF detection buffer and 5 μl was dispensed on top of binding reaction. The reaction was allowed to equilibrate for 30 minutes and signal (665 nm/620 nm ratio) was obtained using an EnVision fluorometer. Additional binding assays were established between PD-1-Ig/PD-L2-His (20 and 5 nM, respectively), CD8O-His/PD-L1-Ig (100 and 10 nM, respectively) and CD80-His/CTLA4-Ig (10 and 5 nM, respectively). Binding/competition studies between biotinylated Compound No. 71 and human PD-L1-His were performed as follows. Macrocyclic peptide inhibitors were pre-incubated with PD-L1-His (10 nM final) for 60 minutes in 4 μl of assay buffer followed by addition of biotinylated Compound No. 71 (0.5 nM final) in 1 μl of assay buffer. Binding was allowed to equilibrate for 30 minutes followed by addition of europium crypated labeled Streptavidin (2.5 pM final) and APC-labeled anti-His (20 nM final) in 5 μl of HTRF buffer. The reaction was allowed to equilibrate for 30 m and signal (665 nm/620 nm ratio) was obtained using an EnVision fluorometer.
Recombinant Proteins. Carboxyl-truncated human PD-1 (amino acids 25-167) with a C-terminal human Ig epitope tag [hPD-1 (25-167)-35-IG] and human PD-L1 (amino acids 18-239) with a C-terminal His epitope tag [hPD-L1(19-239)-tobacco vein mottling virus protease cleavage site (TVMV)-His] were expressed in HEK293T cells and purified sequentially by recombinant Protein A affinity chromatography and size exclusion chromatography. Human PD-L2-His (Sino Biologicals), CD80-His (Sino Biologicals), CTLA4-Ig (RnD Systems) were all obtained through commercial sources.

[2] = oral formulation ENTOCORT EC, extensive first-pass metabolism; cited from earlier work

Chain of PD-1-Ig binding to PD-L1-TVMV-His (PD-L1-His) (Q9NZQ7 other isoform, or with tags, fused parts or gaps): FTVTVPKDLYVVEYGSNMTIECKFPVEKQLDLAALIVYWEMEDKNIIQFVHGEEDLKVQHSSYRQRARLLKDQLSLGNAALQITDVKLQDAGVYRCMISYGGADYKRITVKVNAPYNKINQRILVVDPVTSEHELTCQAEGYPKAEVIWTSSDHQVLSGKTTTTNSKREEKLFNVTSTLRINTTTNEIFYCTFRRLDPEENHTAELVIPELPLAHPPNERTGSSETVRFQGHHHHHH

| IC50 ([1]; value given as range class) | SMILES | further results |
| --- | --- | --- |
| 0.002 to 0.0099 µM | C[C@@H]1NC(=O)[C@@H]2CCCC/C=C\CCCC[C@@H](C(=O)N2C)N(C)C(=O)[C@H](Cc2c[nH]c3ccccc23)NC(=O)[C@H](CO)NC(=O)[C@H](Cc2c[nH]c3ccccc23)NC(=O)[C@@H]2C[C@@H](O)CN2C(=O)[C@H](CCC(N)=O)NC(=O)[C@H](Cc2cnc[nH]2)NC(=O)[C@@H]2CCCN2C(=O)[C@H](CC(=O)O)NC(=O)[C@H](C)N(C)C(=O)[C@H](Cc2ccc(O)cc2)NC(=O)CSC[C@@H](C(=O)NCC(N)=O)NC1=O [Example 1113] |  |
|  | C[C@@H]1NC(=O)[C@@H]2CCCC/C=C\CCCC[C@@H](C(=O)N2C)N(C)C(=O)[C@H](Cc2c[nH]c3ccccc23)NC(=O)[C@H](CO)NC(=O)[C@H](Cc2c[nH]c3ccccc23)NC(=O)[C@@H]2C[C@@H](O)CN2C(=O)[C@H](CCC(N)=O)NC(=O)[C@H](Cc2cnc[nH]2)NC(=O)[C@@H]2CCCN2C(=O)[C@H](CC(=O)O)NC(=O)[C@@H]2CNCCN2C(=O)[C@H](Cc2ccc(O)cc2)NC(=O)CSC[C@@H](C(=O)NCC(N)=O)NC1=O [Example 1115] | IC50 ([1]; numeric value): 0.011 µM |
| 0.01 to 0.099 µM | C[C@H]1C(=O)N[C@@H](CC(=O)O)C(=O)N2CCC[C@H]2C(=O)N[C@@H](CN)C(=O)N[C@@H](CCC(=O)O)C(=O)N2C[C@H](O)C[C@H]2C(=O)N[C@@H](Cc2c[nH]c3ccccc23)C(=O)N[C@@H](CO)C(=O)N[C@@H](Cc2c[nH]c3ccccc23)C(=O)N(C)[C@H]2CCC/C=C\CCCC[C@@H](C(=O)N[C@@H](CCC(=O)O)C(=O)N[C@H](C(=O)NCC(N)=O)CSCC(=O)N[C@@H](Cc3ccc(O)cc3)C(=O)N1C)N(C)C2=O [Example 1116] |  |
| 0.002 to 0.0099 µM | C[C@H]1C(=O)N[C@@H](CC(=O)O)C(=O)N2CCC[C@H]2C(=O)N[C@@H](CN)C(=O)N[C@@H](CCC(=O)O)C(=O)N2C[C@H](O)C[C@H]2C(=O)N[C@@H](Cc2c[nH]c3ccccc23)C(=O)N[C@@H](CO)C(=O)N[C@@H](Cc2cn(CC(=O)O)c3ccccc23)C(=O)N(C)[C@H]2CCCC/C=C\CCCC[C@@H](C(=O)N[C@@H](CCC(=O)O)C(=O)N[C@H](C(=O)NCC(N)=O)CSCC(=O)N[C@@H](Cc3ccc(O)cc3)C(=O)N1C)N(C)C2=O [Example 1117] |  |
| 0.002 to 0.0099 µM | C[C@H]1C(=O)N[C@@H](CC(=O)O)C(=O)N2CCC[C@H]2C(=O)N[C@@H](CN)C(=O)N[C@@H](CCC(=O)O)C(=O)N2C[C@H](O)C[C@H]2C(=O)N[C@@H](Cc2c[nH]c3ccccc23)C(=O)N[C@@H](CO)C(=O)N[C@@H](Cc2csc3ccccc23)C(=O)N(C)[C@H]2CCCC/C=C\CCCC[C@@H](C(=O)N[C@@H](CN)C(=O)N[C@H](C(=O)NCC(N)=O)CSCC(=O)N[C@@H](Cc3ccc(O)cc3)C(=O)N1C)N(C)C2=O [Example 1118] |  |
| 0.002 to 0.0099 µM | CN1C(=O)[C@H](Cc2csc3ccccc23)NC(=O)[C@H](CO)NC(=O)[C@H](Cc2c[nH]c3ccccc23)NC(=O)[C@@H]2C[C@@H](O)CN2C(=O)[C@H](CCC(N)=O)NC(=O)[C@H](CN)NC(=O)[C@@H]2CCCN2C(=O)[C@H](CC(=O)O)NC(=O)[C@@H]2CCCCN2C(=O)[C@H](Cc2ccc(O)cc2)NC(=O)CSC[C@@H](C(=O)NCC(N)=O)NC(=O)[C@H](CN)NC(=O)[C@@H]2CCCC/C=C\CCCC[C@H]1C(=O)N2C [Example 1119] |  |
|  | C[C@@H]1NC(=O)[C@@H]2CCCC/C=C\CCCC[C@@H](C(=O)N2C)N(C)C(=O)[C@H](Cc2c[nH]c3ccccc23)NC(=O)[C@H](CO)NC(=O)[C@H](Cc2c[nH]c3ccccc23)NC(=O)[C@@H]2C[C@@H](O)CN2C(=O)[C@H](CCC(N)=O)NC(=O)[C@H](Cc2cnc[nH]2)NC(=O)[C@@H]2CCCN2C(=O)[C@H](CC(=O)O)NC(=O)[C@@H]2CCCCN2C(=O)[C@H](Cc2ccc(O)cc2)NC(=O)CSC[C@@H](C(=O)NCC(N)=O)NC1=O [Example 1120] | IC50 ([1]; numeric value): 0.004 µM |
| 0.01 to 0.099 µM | CN1C(=O)[C@H](Cc2cn(CC(=O)O)c3ccccc23)NC(=O)[C@H](CCN)NC(=O)[C@H](Cc2c[nH]c3ccccc23)NC(=O)[C@@H]2C[C@@H](O)CN2C(=O)[C@H](CCC(=O)O)NC(=O)[C@H](CN)NC(=O)[C@@H]2CCCN2C(=O)[C@H](CC(=O)O)NC(=O)[C@H]2CCCCN2C(=O)[C@H](Cc2ccc(O)cc2)NC(=O)CSC[C@@H](C(=O)NCC(N)=O)NC(=O)[C@H](CCC(=O)O)NC(=O)[C@@H]2Cc3ccc(cc3)OCC=CCCC[C@H]1C(=O)N2C [Example 1121] |  |
| 0.002 to 0.0099 µM | C[C@H]1C(=O)N[C@@H](CC(=O)O)C(=O)N2CCC[C@H]2C(=O)N[C@@H](CN)C(=O)N[C@@H](CCC(=O)O)C(=O)N2C[C@H](O)C[C@H]2C(=O)N[C@@H](Cc2c[nH]c3ccccc23)C(=O)N[C@@H](CCN)C(=O)N[C@@H](Cc2cn(CC(=O)O)c3ccccc23)C(=O)N(C)C2CCCCC/C=C\CCCC[C@@H](C(=O)N[C@@H](CCC(=O)O)C(=O)N[C@H](C(=O)NCC(N)=O)CSCC(=O)N[C@@H](Cc3ccc(O)cc3)C(=O)N1C)N(C)C2=O [Example 1122] |  |
|  | CCCC1O[C@@H]2C[C@H]3[C@@H]4CCC5=CC(=O)C=C[C@]5(C)[C@H]4[C@@H](O)C[C@]3(C)[C@]2(C(=O)CO)O1 (stereo partly shown) [budesonide] | bioavailability [2]: about 10% |

Reference: patent US11492375B2, “Cyclic peptide immunomodulators” (Bristol-Myers Squibb Company, priority 2017, dated 2022)
